Laboratory results: the supplement of paper PMC10883282

Tests used:
Assay in all cases: relative viability vs DMSO control (72 h) (fraction); higher = more viable cells
SYO-1 = system: SYO-1
Procedure, shortened: (§1)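 Sarcoma cell lines were seeded in 384-well plates at densities chosen for 80–90% confluence, then 24 h later given 2.5 µl of serially diluted compound drawn from source plates spanning 10 mM to 0.0002 mM. They were held 72 h at 37 °C, 5% CO2, with 0.1% DMSO vehicle and a 5 µM positive control included. Relative viability was read with ATPLite as percent growth and averaged over up to triplicate wells. Rescaling placed full at 1 and none at 0.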

SW872 = system: SW872
Procedure, shortened: as §1

KHOS-NP = system: KHOS-NP
Procedure, shortened: as §1

SW684 = system: SW684
Procedure, shortened: as §1

HT1080 = system: HT1080
Procedure, shortened: as §1

G401 = system: G401
Procedure, shortened: as §1

SK-LMS-1 = system: SK-LMS-1
Procedure, shortened: as §1

VA-ES-BJ = system: VA-ES-BJ
Procedure, shortened: as §1

HS729 = system: HS729
Procedure, shortened: as §1

A204 = system: A204
Procedure, shortened: as §1

SW1353 = system: SW1353
Procedure, shortened: as §1

MES-SA = system: MES-SA
Procedure, shortened: as §1

C1=N/C2=N/c3ccc(OCCN4CCCC4)c(c3)COC/C=C/COCc3cccc(c3)C(=C1)N2 [Pacritinib]
Conditions | relative viability
A204, 0.00017 µM | 1.07
A204, 0.00051 µM | 1.05
A204, 0.00152 µM | 1.07
A204, 0.00457 µM | 1.1
A204, 0.01372 µM | 1.07
A204, 0.04115 µM | 1.02
A204, 0.1235 µM | 0.918
A204, 0.3704 µM | 0.654
A204, 1.111 µM | 0.398
A204, 3.333 µM | 0.0367
A204, 10 µM | 0.0523
G401, 0.00017 µM | 1.05
G401, 0.00051 µM | 1.09
G401, 0.00152 µM | 1.02
G401, 0.00457 µM | 1.06
G401, 0.01372 µM | 1.03
G401, 0.04115 µM | 1
G401, 0.1235 µM | 0.966
G401, 0.3704 µM | 0.868
G401, 1.111 µM | 0.552
G401, 3.333 µM | 0.044
G401, 10 µM | 0.0119
HS729, 0.00017 µM | 1.1
HS729, 0.00051 µM | 1.055
HS729, 0.00152 µM | 1.03
HS729, 0.00457 µM | 1
HS729, 0.01372 µM | 1.02
HS729, 0.04115 µM | 0.9592
HS729, 0.1235 µM | 0.947
HS729, 0.3704 µM | 0.928
HS729, 1.111 µM | 0.698
HS729, 3.333 µM | 0.576
HS729, 10 µM | 0.232
HT1080, 0.00017 µM | 1.09
HT1080, 0.00051 µM | 1.07
HT1080, 0.00152 µM | 1.09
HT1080, 0.00457 µM | 1.09
HT1080, 0.01372 µM | 1.08
HT1080, 0.04115 µM | 1.09
HT1080, 0.1235 µM | 1.08
HT1080, 0.3704 µM | 1.12
HT1080, 1.111 µM | 0.925
HT1080, 3.333 µM | 0.169
HT1080, 10 µM | 0.101
KHOS-NP, 0.00017 µM | 1.09
KHOS-NP, 0.00051 µM | 1.12
KHOS-NP, 0.00152 µM | 1.107
KHOS-NP, 0.00457 µM | 1.11
KHOS-NP, 0.01372 µM | 1.125
KHOS-NP, 0.04115 µM | 1.117
KHOS-NP, 0.1235 µM | 1.116
KHOS-NP, 0.3704 µM | 1.112
KHOS-NP, 1.111 µM | 0.996
KHOS-NP, 3.333 µM | 0.451
KHOS-NP, 10 µM | 0.516
MES-SA, 0.00017 µM | 0.966
MES-SA, 0.00051 µM | 0.9661
MES-SA, 0.00152 µM | 0.953
MES-SA, 0.00457 µM | 0.951
MES-SA, 0.01372 µM | 0.938
MES-SA, 0.04115 µM | 0.936
MES-SA, 0.1235 µM | 0.937
MES-SA, 0.3704 µM | 0.794
MES-SA, 1.111 µM | 0.46
MES-SA, 3.333 µM | 0.0101
MES-SA, 10 µM | 0.00167
SK-LMS-1, 0.00017 µM | 1.1
SK-LMS-1, 0.00051 µM | 1.136
SK-LMS-1, 0.00152 µM | 1.08
SK-LMS-1, 0.00457 µM | 1.085
SK-LMS-1, 0.01372 µM | 1.08
SK-LMS-1, 0.04115 µM | 1.08
SK-LMS-1, 0.1235 µM | 1.1
SK-LMS-1, 0.3704 µM | 1.116
SK-LMS-1, 1.111 µM | 0.959
SK-LMS-1, 3.333 µM | 0.539
SK-LMS-1, 10 µM | 0.2186
SW684, 0.00017 µM | 1.14
SW684, 0.00051 µM | 1.17
SW684, 0.00152 µM | 1.15
SW684, 0.00457 µM | 1.19
SW684, 0.01372 µM | 1.15
SW684, 0.04115 µM | 1.11
SW684, 0.1235 µM | 0.977
SW684, 0.3704 µM | 0.781
SW684, 1.111 µM | 0.544
SW684, 3.333 µM | 0.189
SW684, 10 µM | 0.0544
SW872, 0.00017 µM | 1.11
SW872, 0.00051 µM | 1.08
SW872, 0.00152 µM | 1.08
SW872, 0.00457 µM | 1.1
SW872, 0.01372 µM | 1.1
SW872, 0.04115 µM | 1.06
SW872, 0.1235 µM | 1.02
SW872, 0.3704 µM | 0.839
SW872, 1.111 µM | 0.541
SW872, 3.333 µM | 0.131
SW872, 10 µM | 0.0932
SW1353, 0.00017 µM | 1.06
SW1353, 0.00051 µM | 1.091
SW1353, 0.00152 µM | 1.08
SW1353, 0.00457 µM | 1.03
SW1353, 0.01372 µM | 1
SW1353, 0.04115 µM | 0.981
SW1353, 0.1235 µM | 0.966
SW1353, 0.3704 µM | 0.882
SW1353, 1.111 µM | 0.775
SW1353, 3.333 µM | 0.178
SW1353, 10 µM | 0.0164
SYO-1, 0.00017 µM | 1.01
SYO-1, 0.00051 µM | 1.01
SYO-1, 0.00152 µM | 0.997
SYO-1, 0.00457 µM | 0.985
SYO-1, 0.01372 µM | 1.01
SYO-1, 0.04115 µM | 0.952
SYO-1, 0.1235 µM | 0.932
SYO-1, 0.3704 µM | 0.748
SYO-1, 1.111 µM | 0.244
SYO-1, 3.333 µM | 0.0093
SYO-1, 10 µM | 0.00973
VA-ES-BJ, 0.00017 µM | 1.11
VA-ES-BJ, 0.00051 µM | 1.11
VA-ES-BJ, 0.00152 µM | 1.09
VA-ES-BJ, 0.00457 µM | 1.07
VA-ES-BJ, 0.01372 µM | 1.06
VA-ES-BJ, 0.04115 µM | 1.08
VA-ES-BJ, 0.1235 µM | 1.02
VA-ES-BJ, 0.3704 µM | 0.855
VA-ES-BJ, 1.111 µM | 0.149
VA-ES-BJ, 3.333 µM | 0.0927
VA-ES-BJ, 10 µM | 0.0817
